pIC50: −log10 of the molar value.

This assay concerns the target T1, CRTH2 (Homo sapiens, UniProt Q9Y5Y4).
T1 construct: expressed in transfected cells; host or cells: CHO cells
T1 sequence (Q9Y5Y4 1-395): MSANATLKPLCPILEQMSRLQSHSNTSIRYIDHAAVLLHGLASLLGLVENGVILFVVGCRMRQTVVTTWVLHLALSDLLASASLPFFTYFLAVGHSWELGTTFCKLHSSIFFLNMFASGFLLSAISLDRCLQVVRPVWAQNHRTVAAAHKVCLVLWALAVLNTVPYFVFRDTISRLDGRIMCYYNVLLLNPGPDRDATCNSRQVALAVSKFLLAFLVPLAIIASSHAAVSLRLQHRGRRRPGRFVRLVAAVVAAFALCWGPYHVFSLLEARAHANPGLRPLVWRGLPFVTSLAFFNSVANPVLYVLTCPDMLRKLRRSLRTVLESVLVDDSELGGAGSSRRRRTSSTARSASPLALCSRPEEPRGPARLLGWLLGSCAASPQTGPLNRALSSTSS
Description: FRET based competitive immunoassay (cAMP) in CRTH2 expressing CHO cells. The format is cell-based. The conditions noted are these: CRTH2 expressing CHO cells incubated with forskolin and PGD2; Eu3+ cryptate-labeled anti-cAMP and d2-labeled cAMP. How it is done: FRET Assay: To evaluate potency compounds were tested in a FRET based competitive immunoassay in which CRTH2 expressing CHO cells were incubated in the presence of forskolin and PGD2 along with Eu3+ cryptate-labeled anti-cAMP and d2-labeled cAMP.
`Cc1c(-c2nn(C(C)C)c(=O)c3ccccc23)c2cc(F)ccc2n1CC(=O)O` [Example 330, {5-fluoro-2-methyl-3-[3-(1-methylethyl)-4-oxo-3,4-dihydrophthalazin-1-yl]-1H-indol-1-yl}acetic acid] had a pIC50 of 7.82. Consider `Cc1c(-c2ccc(=O)n(C(C)C)c2)c2ccccc2n1CC(=O)O` [Example 276, 2-(3-(1-isopropyl-6-oxo-1,6-dihydropyridin-3-yl)-2-methyl-1H-indol-1-yl)-acetic acid], for which the pIC50 is 6.24.

On to `Cc1c(-c2nn(Cc3cc(F)ccc3F)c(=O)c3ccccc23)c2cc(F)ccc2n1CC(=O)O` [Example 62, 2-(3-(3-(2,5-difluorobenzyl)-4-oxo-3,4-dihydrophthalazin-1-yl)-5-fluoro-2-methyl-1H-indol-1-yl)acetic acid], for which the pIC50 was 8.05. Compared with the last compound, the pIC50 is 1.81 log units higher. The compound `Cc1c(-c2ccc(=O)n(CC3CC3)n2)c2cc(F)ccc2n1CC(=O)O` [Example 161, 2-(3-(1-(cyclopropylmethyl)-6-oxo-1,6-dihydropyridazin-3-yl)-5-fluoro-2-methyl-1H-indol-1-yl)acetic acid] showed a pIC50 of 7.64. `Cc1c(-c2nn(CCC(C(F)(F)F)C(F)(F)F)c(=O)c3ccccc23)c2cc(F)ccc2n1CC(=O)O` [Example 137, 2-(5-fluoro-2-methyl-3-(4-oxo-3-(4,4,4-trifluoro-3-(trifluoromethyl)butyl)-3,4-dihydrophthalazin-1-yl)-1H-indol-1-yl)acetic acid] had a pIC50 of 7.68. `Cc1c(Cc2ccc(=O)n(Cc3cc(F)ccc3F)c2)c2cc(F)ccc2n1CC(=O)O` [Example 26, 2-(3-((1-(2,5-Difluorobenzyl)-6-oxo-1,6-dihydropyridin-3-yl)methyl)-5-fluoro-2-methyl-1H-indol-1-yl)acetic acid] had a pIC50 of 8.10. `COc1ccc2c(c1)c(-c1ccc(=O)n(Cc3ccccc3)n1)c(C)n2CC(=O)O` [Example 18, 2-(3-(1-Benzyl-6-oxo-1,6-dihydropyridazin-3-yl)-5-methoxy-2-methyl-1H-indol-1-yl)acetic acid] showed a pIC50 of 6.72. Compound `Cc1c(-c2ccc(=O)n(Cc3ccc(F)cc3)c2)c2cc(Cl)ccc2n1CC(=O)O` [Example 289, 2-(5-chloro-3-(1-(4-fluorobenzyl)-6-oxo-1,6-dihydropyridin-3-yl)-2-methyl-1H-indol-1-yl)acetic acid] gave a pIC50 of 8.22. Compared with the last compound, the pIC50 is 1.50 log units higher. As to `Cc1c(-c2nn(Cc3nnc[nH]3)c(=O)c3ccccc23)c2cc(F)ccc2n1CC(=O)O` [Example 270, 2-(3-(3-((4H-1,2,4-triazol-3-yl)methyl)-4-oxo-3,4-dihydrophthalazin-1-yl)-5-fluoro-2-methyl-1H-indol-1-yl)acetic acid], the negative logarithm of the IC50 (pIC50) was < 5.26. The compound `Cc1c(Cc2ccc(=O)n(CC(C)(C)C)n2)c2cc(F)ccc2n1CC(=O)O` [Example 343, (3-{[1-(2,2-dimethylpropyl)-6-oxo-1,6-dihydropyridazin-3-yl]methyl}-5-fluoro-2-methyl-1H-indol-1-yl)acetic acid] had a pIC50 of 6.85. As for `COc1ccc2c(c1)c(-c1nn(C(C)C)c(=O)c3ccccc13)c(C)n2CC(=O)O` [Example 19, 2-(3-(3-Isopropyl-4-oxo-3,4-dihydrophthalazin-1-yl)-5-methoxy-2-methyl-1H-indol-1-yl)acetic acid], the pIC50 was 6.96. Compound `Cc1c(-c2nn(Cc3ccccc3C(F)(F)F)c(=O)c3ccccc23)c2cc(F)ccc2n1CC(=O)O` [Example 202, 2-(5-fluoro-2-methyl-3-(4-oxo-3-(2-(trifluoromethyl)benzyl)-3,4-dihydrophthalazin-1-yl)-1H-indol-1-yl)acetic acid] gave a pIC50 of 8.05. Compound `CCn1nc(-c2c(C)n(CC(=O)O)c3ccccc23)c2ccccc2c1=O` [Example 175, 2-(3-(3-ethyl-4-oxo-3,4-dihydrophthalazin-1-yl)-2-methyl-1H-indol-1-yl)-acetic acid] showed a pIC50 of 6.76. Compared with the last compound, the pIC50 is 1.29 log units lower. Consider `Cc1c(Cc2ccc(=O)n(Cc3cccc(F)c3F)n2)c2ccccc2n1CC(=O)O` [Example 79, 2-(3-((1-(2,3-difluorobenzyl)-6-oxo-1,6-dihydropyridazin-3-yl)methyl)-2-methyl-1H-indol-1-yl)acetic acid], for which the pIC50 was 7.66. Take `Cc1c(-c2nn(CC(O)(C(F)(F)F)C(F)(F)F)c(=O)c3ccccc23)c2cc(F)ccc2n1CC(=O)O` [Example 131, 2-(5-fluoro-2-methyl-3-(4-oxo-3-(3,3,3-trifluoro-2-hydroxy-2-(trifluoro-methyl)propyl)-3,4-dihydrophthalazin-1-yl)-1H-indol-1-yl)acetic acid]: the pIC50 was 7.27. This pIC50 lies 0.39 log units lower than the previous one. In the case of `Cc1c(-c2nn(CC(C)(C)Oc3ccccc3)c(=O)c3ccccc23)c2cc(F)ccc2n1CC(=O)O` [Example 220, 2-(5-fluoro-2-methyl-3-(3-(2-methyl-2-phenoxypropyl)-4-oxo-3,4-dihydrophthalazin-1-yl)-1H-indol-1-yl)acetic acid], the negative logarithm of the IC50 (pIC50) is 7.74. This pIC50 is 0.47 log units higher than that of the compound before. Turning to `Cc1c(-c2cn(CC(C)(C)O)c(=O)c3c2CCCC3)c2cc(F)ccc2n1CC(=O)O` [Example 92, 2-(5-fluoro-3-(2-(2-hydroxy-2-methylpropyl)-1-oxo-1,2,5,6,7,8-hexahydro-iso-quinolin-4-yl)-2-methyl-1H-indol-1-yl)acetic acid], the negative-log IC50 (pIC50) was < 6.00. For `Cc1c(-c2cn(CC(F)(F)F)c(=O)c3ccccc23)c2cc(F)ccc2n1CC(=O)O` [Example 250, 2-(5-fluoro-2-methyl-3-(1-oxo-2-(2,2,2-trifluoroethyl)-1,2-dihydroiso-quinolin-4-yl)-1H-indol-1-yl)acetic acid], the pIC50 was 8.40. `Cc1c(-c2ccc(=O)n(Cc3ccccc3)c2)c2ccccc2n1CC(=O)O` [Example 263, 2-(3-(1-benzyl-6-oxo-1,6-dihydropyridin-3-yl)-2-methyl-1H-indol-1-yl)acetic acid] showed a pIC50 of 7.38. In turn, `Cc1c(-c2ccc(=O)n(Cc3cccc(F)c3F)n2)c2ccccc2n1CC(=O)O` [Example 188, 2-(3-(1-(2,3-difluorobenzyl)-6-oxo-1,6-dihydropyridazin-3-yl)-2-methyl-1H-indol-1-yl)acetic acid] showed a pIC50 of 6.64.

Compound `Cc1nnc(Cn2nc(-c3c(C)n(CC(=O)O)c4ccc(F)cc34)ccc2=O)[nH]1` [Example 260b, 2-(5-fluoro-2-methyl-3-(1-((5-methyl-4H-1,2,4-triazol-3-yl)methyl)-6-oxo-1,6-dihydro-pyridazin-3-yl)-1H-indol-1-yl)acetic acid] showed a negative-log IC50 (pIC50) of 5.78. Take `Cc1c(-c2nn(Cc3ncnn3-c3ccccc3)c(=O)c3ccccc23)c2cc(F)ccc2n1CC(=O)O` [Example 261, 2-(5-fluoro-2-methyl-3-(4-oxo-3-((1-phenyl-1H-1,2,4-triazol-5-yl)methyl)-3,4-dihydrophthalazin-1-yl)-1H-indol-1-yl)acetic acid]: the pIC50 was 7.96. Regarding `Cc1ccc2c(c1)c(-c1nn(Cc3ccccc3)c(=O)c3ccccc13)c(C)n2CC(=O)O` [Example 192, 2-(3-(3-Benzyl-4-oxo-3,4-dihydrophthalazin-1-yl)-2,5-dimethyl-1H-indol-1-yl)acetic acid], the pIC50 was 8.40. With `Cc1c(-c2nn(Cc3cc(F)c(F)cc3F)c(=O)c3ccccc23)c2cc(F)ccc2n1CC(=O)O` [Example 63, 2-(5-fluoro-2-methyl-3-(4-oxo-3-(2,4,5-trifluorobenzyl)-3,4-dihydro-phthalazin-1-yl)-1H-indol-1-yl)acetic acid] the figure was 7.82; with `Cc1c(Cc2ccc(=O)n(Cc3ccccc3F)n2)c2cc(F)ccc2n1CC(=O)O` [Example 340, (3-{[1-(2-fluorobenzyl)-6-oxo-1,6-dihydropyridazin-3-yl]methyl}-5-fluoro-2-methyl-1H-indol-1-yl)acetic acid], 8.52; with `Cc1c(-c2ccc(=O)n(Cc3ccc(F)cc3)n2)c2ccccc2n1CC(=O)O` [Example 189, 2-(3-(1-(4-fluorobenzyl)-6-oxo-1,6-dihydropyridazin-3-yl)-2-methyl-1H-indol-1-yl)acetic acid], 7.35. As to `Cc1c(-c2ccc(=O)n(CC(C)(C)Oc3ccccc3)n2)c2cc(F)ccc2n1CC(=O)O` [Example 230, 2-(5-fluoro-2-methyl-3-(1-(2-methyl-2-phenoxypropyl)-6-oxo-1,6-dihydropyridazin-3-yl)-1H-indol-1-yl)acetic acid], the negative-log IC50 (pIC50) is 6.63. Compound `Cc1ccc(Cn2nc(-c3c(C)n(CC(=O)O)c4ccccc34)c3ccccc3c2=O)cc1` [Example 173, 2-(2-methyl-3-(3-(4-methylbenzyl)-4-oxo-3,4-dihydrophthalazin-1-yl)-1H-indol-1-yl)acetic acid] had a pIC50 of 7.12. Compared with the last compound, the pIC50 is 0.49 log units higher. For `Cc1c(-c2ccc(=O)n(C3CCCC3)c2)c2ccccc2n1CC(=O)O` [Example 288, 2-(3-(1-cyclopentyl-6-oxo-1,6-dihydropyridin-3-yl)-2-methyl-1H-indol-1-yl)-acetic acid], the pIC50 is 6.93. The pIC50 values of the last two compounds are within 0.2 log units of each other.

The compound `Cc1c(-c2ccc(=O)n(Cc3nc4ccccc4s3)n2)c2cc(Cl)ccc2n1CC(=O)O` [Example 141, 2-(3-(1-(benzo[d]thiazol-2-ylmethyl)-6-oxo-1,6-dihydropyridazin-3-yl)-5-chloro-2-methyl-1H-indol-1-yl)acetic acid] had a pIC50 of 7.34.

The compound `Cc1c(-c2ccc(=O)n(Cc3ccccc3)n2)c2cc(S(C)(=O)=O)ccc2n1CC(=O)O` [Example 214, 2-(3-(1-benzyl-6-oxo-1,6-dihydropyridazin-3-yl)-2-methyl-5-(methylsulfonyl)-1H-indol-1-yl)acetic acid] gave a pIC50 of 6.45. This pIC50 is 0.89 log units lower than that of the compound before.

The values above are taken from patent US20110105509A1 (Wyeth, LLC, priority 2009, published 2011).
